Data on 16 molecules can be found in PMC7751403, “Development of 2-oindolin-3-ylidene-indole-3-carbohydrazide derivatives as novel apoptotic and anti-proliferative agents towards colorectal cancer cells” (Journal of Enzyme Inhibition and Medicinal Chemistry, 2020).

Like-named read-outs stand apart in the source and are kept apart here.

Series [1] concerns HT-29 colorectal cancer cell line. In words: MTT cell viability assay, HT-29 colorectal cancer cells. The format is cell-based, human. As to the method:
(§1) HT29 and SW620 colorectal cancer cell lines and HFF-1 fibroblast (ATCC, Rockville, USA) were used. HT29 cells were cultured and maintained in Dulbecco’s Modified Eagle’s Medium (DMEM) (GIBCO, by Thermo Fischer Scientific, NY, USA) supplemented with 10% foetal bovine serum (FBS), 100 units/mL penicillin, and 100 µg streptomycin. SW620 and HFF-1 cells were cultured in Roswell Park Memorial Institute medium (RPMI-1640) (GIBCO, by Thermo scientific, NY, USA) supplemented with 10% FBS and 1% penicillin and streptomycin (Napolitano et al., 2015). All cultures were incubated at 37 °C and humidified atmosphere of 5% CO2.
(§2) The cytotoxicity effect of compounds on the colorectal cancer cell lines, HT29 and SW620 in addition to the normal human fibroblasts was measured by MTT (3–(4, 5-dimethylthiazol-2-yl)-2,5-diphenyltetrazolium bromide) (Sigma-Aldrich, St. Louis, MO, USA) as previously described. Briefly, cells were seeded in 96 well culture plates at 5000/well for HT29 and 10,000/well for SW620 for 24 h. Cells were then incubated with different compounds from WAG1 series (1–15) 24 h at 37 °C and humidified 5% CO2 incubator. Freshly prepared 10 µl of 3–(4,5-dimethylthiazol-2-yl)-2,5-diphenyltetrazolium bromide (MTT 5 mM) solution were added to the cells and further incubated for 2 h. Thereafter, 100 µl of dimethyl sulphoxide (DMSO) were added in each well and the crystals were dissolved through careful pipetting. In certain experiment, cells were treated different concentration of 5FU for 72 h. The absorbance of the product was measured at 540 nm using a Synergy™ 2 multi-mode microplate reader (Biotech, VA, USA). The experiments were performed in triplicate for each condition.

Series [2] relates to SW-620 colorectal cancer cell line. Kind of series: MTT cell viability assay, SW-620 colorectal cancer cells. The format is cell-based, human. As to the method: as §1, §2
Series [3] concerns normal human skin fibroblast (HFF-1). Kind of series: MTT cell viability assay, normal fibroblast HFF-1. The class given is cell-based. Conditions: 24 h. As to the method:
as §1
The cytotoxicity effect of compounds on the colorectal cancer cell lines, HT29 and SW620 in addition to the normal human fibroblasts was measured by MTT (3–(4, 5-dimethylthiazol-2-yl)-2,5-diphenyltetrazolium bromide) (Sigma-Aldrich, St. Louis, MO, USA) as previously described. Briefly, cells were seeded in 96 well culture plates at 5000/well for HT29 and 10,000/well for SW620 for 24 h. Cells were then incubated with different compounds from WAG1 series (1–15) 24 h at 37 °C and humidified 5% CO2 incubator. […] The absorbance of the product was measured at 540 nm using a Synergy™ 2 multi-mode microplate reader (Biotech, VA, USA). […]

The subject of the next series is Bcl2. In words: Western blot of Bcl2 protein expression in SW-620 cells. The format is cell-based, human. The settings on record: SW-620, two concentrations, 24 h, immunoblotting. As to the method:
(§3) All cells were seeded in a 100 mm dish (1 × 10^6 cells per dish) in 5% CO2 at 37 °C in the appropriate culture medium. The cells with around 50% confluency were treated with compounds for 24 h. At the experiment day, cells were washed with 1x PBS, harvested and lysed in RIPA lysis buffer, combined with protease inhibitors, (Sigma-Aldrich, St. Louis, MO, USA) as described previously[39]). The total protein concentration was evaluated by the colorimetric Bradford protein assay (BIO-RAD inc, CA, USA) at 595 nm absorbance. Lysates were loaded in equal concentration and separated by sodium dodecyl sulfate-polyacrylamide gel electrophoresis (SDS-PAGE) and then transferred to a nitrocellulose membrane by semi-dry. Blocking of the membrane was done by 5% non-fat dried milk for one hour, incubated with the primary antibodies. The primary antibodies used were Bcl2 (cat. no. sc-7382), BclxL (cat. no. sc-8392) and β Actin (cat. no. sc-69879) from (Santa Cruz Biotechnology, Inc., Dallas, TX, USA). The secondary antibodies used were goat anti-mouse IgG-HRP (cat. no. sc-2005) and mouse anti-rabbit IgG-HRP (cat. no. sc-2357) from (Santa Cruz Biotechnology, Inc., Dallas, TX, USA). Detection was done with Luminol HRP chemiluminescence substrate (cat. no. sc-2048) from (Santa Cruz Biotechnology, Inc., Dallas, TX, USA) and then visualised by c-digit blot-scanner (LI-COR, Nebraska, USA).

Another series concerns BclxL. Kind of series: Western blot of BclxL protein expression in SW-620 cells. The format is cell-based, human. The settings on record: SW-620, two concentrations, 24 h, immunoblotting. As to the method: as §3
A further series deals with SW-620 cells. In words: Annexin V-FITC/PI apoptosis assay (flow cytometry). The class given is cell-based, human. The settings on record: 24 h. As to the method: Induction of apoptosis was measured by Dead Cell Apoptosis Kit with Annexin V FITC and PI, for flow cytometry (Thermofischer scientific, OR, USA) according to the manufacturer’s instruction. As described previously (39), cells were seeded in a 6-well plate (3 × 10^5 cells per well) and treated with the various compound for 24 h. Both floating and adherent cells were harvested, pooled together, and incubated with Annexin V-FITC and PI for 15 min on ice in dark. The cells were analysed by BD FACSCalibur™ cell analyser (BD Biosciences, CA, USA) at an emission of 530 nm (FL1 channel) and >575 nm (FL3).

[4] abbreviates: Homo sapiens, HT-29, MTT, compounds 24 h (5FU 72 h), three separate experiments, read-out: IC50 (nM) HT-29.
Where [5] appears, read: Homo sapiens, SW-620, MTT, compounds 24 h (5FU 72 h), three separate experiments, read-out: IC50 (nM) SW-620.
[6] abbreviates: MTT, compounds 24 h (5FU 72 h), three separate experiments, read-out: IC50 (nM) HT-29.
[7] abbreviates: MTT, compounds 24 h (5FU 72 h), three separate experiments, read-out: IC50 (nM) SW-620.

On to `CN1C(=O)C(=NNC(=O)c2c[nH]c3ccccc23)c2ccccc21` [Compound 9a, N'-(1-Methyl-2-oxoindolin-3-ylidene)-1H-indole-3-carbohydrazide], for which the melting point lay in the range of 273 to 275 °C. The IC50 in series [1] (setting [4]) came to 176 nM. In addition, the concentration for half-maximal inhibition (IC50) in series [2] (setting [5]) is 260 nM.
As to `O=c1[nH]cc(F)c(=O)[nH]1` [Compound 5-FU, 5-Fluorouracil, reference compound], the IC50 in series [1] (Homo sapiens, HT-29, 72 h, MTT, 5FU 72 h, read-out: IC50 against HT-29) is 1500 nM; in series [1] (setting [4]) it was 4600 nM; in series [2] (Homo sapiens, SW-620, 72 h, MTT, 5FU 72 h, read-out: IC50 against SW-620) it was 4600 nM; in series [2] (setting [5]) it was 1500 nM.
`Cc1ccc2c(c1)C(=NNC(=O)c1c[nH]c3ccccc13)C(=O)N2` [Compound 7e, N'-(5-Methyl-2-oxoindolin-3-ylidene)-1H-indole-3-carbohydrazide]: the melting point lay in the range of 201 to 203 °C. In series [1] (setting [4]), the half-maximal inhibitory concentration (IC50) worked out at 335 nM. Also, the half-maximal inhibitory concentration (IC50) in series [2] (setting [5]) was found to be 253 nM.
Regarding `O=C(NN=C1C(=O)N(Cc2ccccc2)c2ccccc21)c1c[nH]c2ccccc12` [Compound 9c, N'-(1-Benzyl-2-oxoindolin-3-ylidene)-1H-indole-3-carbohydrazide], the melting point fell in the range of 274 to 276 °C. Also, in series [1] (setting [4]), the IC50 came to 405 nM. In series [2] (setting [5]), the IC50 turned out to be 283 nM.
On the same counts, the results for `O=C1Nc2ccc(F)cc2C1=NNC(=O)c1c[nH]c2ccccc12` [Compound 7b, N'-(5-Fluoro-2-oxoindolin-3-ylidene)-1H-indole-3-carbohydrazide] are > 300 °C, 611 nM and 175 nM.
Take `O=C1Nc2ccccc2C1=NNC(=O)c1c[nH]c2ccccc12` [Compound 7a, N'-(2-Oxoindolin-3-ylidene)-1H-indole-3-carbohydrazide]: the melting point was in the range of 259 to 261 °C. Besides, the IC50 in series [1] (setting [4]) came out at 408 nM. Moreover, in series [2] (setting [5]), the IC50 came to 145 nM.
For the molecule `O=C1Nc2ccc(Cl)cc2C1=NNC(=O)c1c[nH]c2ccccc12` [Compound 7c, N'-(5-Chloro-2-oxoindolin-3-ylidene)-1H-indole-3-carbohydrazide], the IC50 in series [1] (setting [4]) is 188 nM; in series [1] (setting [6]) it was 206 nM; in series [2] (setting [5]), 206 nM; in series [2] (setting [7]) it was 188 nM. Besides, the “effect on cell viability of HFF-1” value in series [3] is “no/or little effect”. For the same molecule, the Bcl2 protein expression entry in the series with Bcl2 was “dose-dependent inhibition”. In addition, in the series with BclxL, the BclxL protein expression result was “dose-dependent inhibition”. Besides, the “fold total apoptosis increase compared to the control” value in the series on SW-620 cells (SW-620, 250 nM) is “approximately 5.2 fold”; in the series on SW-620 cells (SW-620, 500 nM) it was ~10.66 fold.
As to `CCCN1C(=O)C(=NNC(=O)c2c[nH]c3ccccc23)c2ccccc21` [Compound 9b, N'-(2-Oxo-1-propylindolin-3-ylidene)-1H-indole-3-carbohydrazide], the melting point fell in the range of 248 to 250 °C. In addition, the IC50 in series [1] (setting [4]) came out at 525 nM. Further, in series [2] (setting [5]), the IC50 came to 105 nM.
For `O=C1Nc2ccc(OC(F)(F)F)cc2C1=NNC(=O)c1c[nH]c2ccccc12` [Compound 7g, N'-(2-Oxo-5-(trifluoromethoxy)indolin-3-ylidene)-1H-indole-3-carbohydrazide], the IC50 was 279 nM in series [1] (setting [4]), 299 nM in series [1] (setting [6]), 299 nM in series [2] (setting [5]) and 279 nM in series [2] (setting [7]). For the same molecule, the “effect on cell viability of HFF-1” value in series [3] is “no/or little effect”. Moreover, in the series with Bcl2, the Bcl2 protein expression entry is given as “inhibit”. Besides, the BclxL protein expression entry with BclxL is listed as “inhibit”. Moreover, the “fold total apoptosis increase compared to the control” value is “approximately 7.3 fold” in the series on SW-620 cells (SW-620, 250 nM) and ~9.6 fold with SW-620 cells (SW-620, 500 nM).
In turn, `O=C1Nc2ccc(Br)cc2C1=NNC(=O)c1c[nH]c2ccccc12` [Compound 7d, N'-(5-Bromo-2-oxoindolin-3-ylidene)-1H-indole-3-carbohydrazide] gave a melting point of 247 to 249 °C. For the same molecule, the IC50 in series [1] (setting [4]) amounted to 320 nM. In addition, the IC50 in series [2] (setting [5]) was 133 nM.
For `O=C1Nc2ccc([N+](=O)[O-])cc2C1=NNC(=O)c1c[nH]c2ccccc12` [Compound 7h, N'-(5-Nitro-2-oxoindolin-3-ylidene)-1H-indole-3-carbohydrazide], the melting point is > 300 °C. Also, in series [1] (setting [4]), the IC50 is 132 nM. The “fold more active than 5FU against HT-29” value in series [1] (ratio of IC50 values versus 5FU) is reported as “approximately 35 fold”. For the same molecule, in series [2] (setting [5]), the concentration for half-maximal inhibition (IC50) was 190 nM.
Turning to `O=C1Nc2c(F)cccc2C1=NNC(=O)c1c[nH]c2ccccc12` [Compound 7i, N'-(7-Fluoro-2-oxoindolin-3-ylidene)-1H-indole-3-carbohydrazide], the melting point was > 300 °C. Besides, in series [1] (setting [4]), the IC50 was determined as 140 nM. Moreover, the IC50 in series [2] (setting [5]) was found to be 468 nM.
On the same counts, the results for `CCCN1C(=O)C(=NNC(=O)c2c[nH]c3ccccc23)c2cc(Cl)ccc21` [Compound 9d, N'-(5-Chloro-2-oxo-1-propylindolin-3-ylidene)-1H-indole-3-carbohydrazide] are 262 to 263 °C, 166 nM and 290 nM.
On the same counts, the results for `COc1ccc2c(c1)C(=NNC(=O)c1c[nH]c3ccccc13)C(=O)N2` [Compound 7f, N'-(5-Methoxy-2-oxoindolin-3-ylidene)-1H-indole-3-carbohydrazide] are 197 to 199 °C, 142 nM and 37 nM.
`CCCN1C(=O)C(=NNC(=O)c2c[nH]c3ccccc23)c2cc(Br)ccc21` [Compound 9e, N'-(5-Bromo-2-oxo-1-propylindolin-3-ylidene)-1H-indole-3-carbohydrazide] came in with a melting point of 255 to 256 °C. In addition, the concentration for half-maximal inhibition (IC50) in series [1] (setting [4]) came out at 290 nM. Also, in series [2] (setting [5]), the IC50 turned out to be 414 nM.
`Cc1cc(C)c2c(c1)C(=NNC(=O)c1c[nH]c3ccccc13)C(=O)N2` [Compound 7j, N'-(5,7-Dimethyl-2-oxoindolin-3-ylidene)-1H-indole-3-carbohydrazide]: the melting point is > 300 °C. Besides, the IC50 in series [1] (setting [4]) turned out to be 200 nM. In series [2] (setting [5]), the IC50 is 187 nM.
